Test system: 156681-154-R-J1 tumor spheroid viability
Assay: Anticancer human tumor 156681-154-R-J1 patient-derived melanoma cell line growth inhibition
Details: spheroids with HUVEC and MSC; for IC50: curve of first compound; for viability, T/C: stronger effect = lower value
Outline: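 Single agents and combinations were tested on spheroids built from tumor cells plus HUVEC and hMSC, at half-log dilutions starting at or near clinical Cmax, else 10 microM; final DMSO 0.25% (v/v).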

[1] = second compound 30 pM, first compound 0.0316 µM
[2] = second compound 30 pM, first compound 0.1 µM
[3] = second compound 30 pM, first compound 0.316 µM
[4] = second compound 30 pM, first compound 1 µM
[5] = second compound 30 pM, first compound 3.16 µM
[6] = second compound 30 pM, first compound 10 µM
[7] = second compound 94.9 pM, first compound 0.0316 µM
[8] = second compound 94.9 pM, first compound 0.1 µM
[9] = second compound 94.9 pM, first compound 0.316 µM
[10] = second compound 94.9 pM, first compound 1 µM
[11] = second compound 94.9 pM, first compound 3.16 µM
[12] = second compound 94.9 pM, first compound 10 µM
[13] = second compound 0.0003 µM, first compound 0.0316 µM
[14] = second compound 0.0003 µM, first compound 0.1 µM
[15] = second compound 0.0003 µM, first compound 0.316 µM
[16] = second compound 0.0003 µM, first compound 1 µM
[17] = second compound 0.0003 µM, first compound 3.16 µM
[18] = second compound 0.0003 µM, first compound 10 µM
[19] = second compound 0.000949 µM, first compound 0.0316 µM
[20] = second compound 0.000949 µM, first compound 0.1 µM
[21] = second compound 0.000949 µM, first compound 0.316 µM
[22] = second compound 0.000949 µM, first compound 1 µM
[23] = second compound 0.000949 µM, first compound 3.16 µM
[24] = second compound 0.000949 µM, first compound 10 µM
[25] = second compound 0.003 µM, first compound 0.0316 µM
[26] = second compound 0.003 µM, first compound 0.1 µM
[27] = second compound 0.003 µM, first compound 0.316 µM
[28] = second compound 0.003 µM, first compound 1 µM
[29] = second compound 0.003 µM, first compound 3.16 µM
[30] = second compound 0.003 µM, first compound 10 µM
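Further: spheroids exposed to compounds for 7 days before readout.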
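Wherever viability, T/C is given: percent of vehicle control viability where 100% = DMSO-treated spheroids.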

Compound	IC50 (second compound 30 pM) [nM]	IC50 (second compound 94.9 pM) [nM]	IC50 (second compound 0.0003 µM) [nM]	IC50 (second compound 0.000949 µM) [nM]	IC50 (second compound 0.003 µM) [nM]	viability, T/C [1] [%]	viability, T/C [2] [%]	viability, T/C [3] [%]	viability, T/C [4] [%]	viability, T/C [5] [%]	viability, T/C [6] [%]	viability, T/C [7] [%]	viability, T/C [8] [%]	viability, T/C [9] [%]	viability, T/C [10] [%]	viability, T/C [11] [%]	viability, T/C [12] [%]	viability, T/C [13] [%]	viability, T/C [14] [%]	viability, T/C [15] [%]	also measured
CC(C)n1c(=O)n(C)c2cnc3cc(F)c(-c4ccc(OCCCN5CCCCC5)nc4)cc3c21 + COc1cc2c(cc1O)CCNC21CSC2c3c(OC(C)=O)c(C)c4c(c3C(COC1=O)N1C(O)C3Cc5cc(C)c(OC)c(O)c5C(C21)N3C)OCO4	> 10000	> 10000	4750	< 31.6	< 31.6	101	120	87.2	105	104	90.3	106	91.1	103	95	108	73.5	66.9	63.5	61.7	viability, T/C [16]: 65.7%; viability, T/C [17]: 85.7%; viability, T/C [18]: 15.9%; viability, T/C [19]: 6.13%; viability, T/C [20]: 2.85%; viability, T/C [21]: 4.29%; viability, T/C [22]: 3.82%; viability, T/C [23]: 4.41%; viability, T/C [24]: 0.77%; viability, T/C [25]: 0.23%; viability, T/C [26]: 0.23%; viability, T/C [27]: 0.24%; viability, T/C [28]: 0.22%; viability, T/C [29]: 0.18%; viability, T/C [30]: 0.24%
CC1COCCN1c1cc(-c2ccnn2C)c2ccnc(-c3ccn[nH]3)c2n1 (stereo not given) + COc1cc2c(cc1O)CCNC21CSC2c3c(OC(C)=O)c(C)c4c(c3C(COC1=O)N1C(O)C3Cc5cc(C)c(OC)c(O)c5C(C21)N3C)OCO4	190	104	< 31.6	< 31.6	< 31.6	96.4	62.2	39.9	29.9	27.3	22.6	78.7	50.7	33.6	30	22.1	21.9	49.5	41.1	23.9	viability, T/C [16]: 20.6%; viability, T/C [17]: 21.3%; viability, T/C [18]: 20.1%; viability, T/C [19]: 6.51%; viability, T/C [20]: 2.7%; viability, T/C [21]: 4.04%; viability, T/C [22]: 3.29%; viability, T/C [23]: 0.29%; viability, T/C [24]: 0.17%; viability, T/C [25]: 0.23%; viability, T/C [26]: 0.22%; viability, T/C [27]: 0.16%; viability, T/C [28]: 0.13%; viability, T/C [29]: 0.14%; viability, T/C [30]: 0.25%
COc1cc(C)[nH]c(=O)c1CN1CCc2c(Cl)cc(C(OC)C3COC3)c(Cl)c2C1=O (stereo not given) + COc1cc2c(cc1O)CCNC21CSC2c3c(OC(C)=O)c(C)c4c(c3C(COC1=O)N1C(O)C3Cc5cc(C)c(OC)c(O)c5C(C21)N3C)OCO4	> 10000	> 10000	> 10000	< 31.6	< 31.6	88.8	112	94.9	93.3	92.6	120	90.9	98.3	106	116	106	98.1	77.9	82.3	87.7	viability, T/C [16]: 80.1%; viability, T/C [17]: 73.3%; viability, T/C [18]: 67.2%; viability, T/C [19]: 6.81%; viability, T/C [20]: 5.99%; viability, T/C [21]: 5.88%; viability, T/C [22]: 5.47%; viability, T/C [23]: 3.42%; viability, T/C [24]: 2.93%; viability, T/C [25]: 0.33%; viability, T/C [26]: 0.34%; viability, T/C [27]: 0.33%; viability, T/C [28]: 0.41%; viability, T/C [29]: 0.38%; viability, T/C [30]: 0.48%
COc1ccc([C@@H](O)c2cc(-c3ncnc4cc(N5CCOCC5)ccc34)c(F)cc2Cl)nn1 + COc1cc2c(cc1O)CCNC21CSC2c3c(OC(C)=O)c(C)c4c(c3C(COC1=O)N1C(O)C3Cc5cc(C)c(OC)c(O)c5C(C21)N3C)OCO4	9850	5110	427	< 31.6	< 31.6	118	107	88.5	84.7	64	49.5	108	92	89.9	69.5	55.9	41.5	83.5	79.5	54.1	viability, T/C [16]: 32.4%; viability, T/C [17]: 4.29%; viability, T/C [18]: 0.28%; viability, T/C [19]: 5.23%; viability, T/C [20]: 2.87%; viability, T/C [21]: 0.68%; viability, T/C [22]: 0.1%; viability, T/C [23]: 0.07%; viability, T/C [24]: 0.18%; viability, T/C [25]: 0.27%; viability, T/C [26]: 0.3%; viability, T/C [27]: 0.22%; viability, T/C [28]: 0.18%; viability, T/C [29]: 0.16%; viability, T/C [30]: 0.28%
Cc1cc(C)c(CNC(=O)c2cc(-c3ccc(CN4CCOCC4)cc3)cc3c2cnn3C2CCCC2)c(=O)[nH]1 + COc1cc2c(cc1O)CCNC21CSC2c3c(OC(C)=O)c(C)c4c(c3C(COC1=O)N1C(O)C3Cc5cc(C)c(OC)c(O)c5C(C21)N3C)OCO4	> 10000	> 10000	> 10000	< 31.6	< 31.6	103	106	87.3	78.7	81.5	87.8	100	93.8	89	77.6	86.4	78.8	76.2	74.5	76.2	viability, T/C [16]: 79.6%; viability, T/C [17]: 72.7%; viability, T/C [18]: 66.4%; viability, T/C [19]: 4.8%; viability, T/C [20]: 6.16%; viability, T/C [21]: 5.29%; viability, T/C [22]: 6.16%; viability, T/C [23]: 3.09%; viability, T/C [24]: 1.36%; viability, T/C [25]: 0.35%; viability, T/C [26]: 0.31%; viability, T/C [27]: 0.24%; viability, T/C [28]: 0.18%; viability, T/C [29]: 0.16%; viability, T/C [30]: 0.28%
[2H]c1nc(C)nc([2H])c1-c1cc(NC[C@@H](C)c2cccc3c(C(=O)NC)ccnc23)ncn1 + COc1cc2c(cc1O)CCNC21CSC2c3c(OC(C)=O)c(C)c4c(c3C(COC1=O)N1C(O)C3Cc5cc(C)c(OC)c(O)c5C(C21)N3C)OCO4	> 10000	> 10000	> 10000	< 31.6	< 31.6	91.3	96	109	95.1	92.3	94	89.6	111	105	85	90.4	76.8	79.7	86.6	80	viability, T/C [16]: 75.3%; viability, T/C [17]: 81.9%; viability, T/C [18]: 62.4%; viability, T/C [19]: 6.44%; viability, T/C [20]: 4.98%; viability, T/C [21]: 4.24%; viability, T/C [22]: 4.33%; viability, T/C [23]: 3.62%; viability, T/C [24]: 3.23%; viability, T/C [25]: 0.26%; viability, T/C [26]: 0.3%; viability, T/C [27]: 0.22%; viability, T/C [28]: 0.17%; viability, T/C [29]: 0.17%; viability, T/C [30]: 0.28%

Reference: PubChem BioAssay AID1845195 (Molecular Pharmacology Branch, DTP, NCI, 2023)
